# From the COVID Moonshot data (paper PMC11187573), “Identification of SARS-CoV-2 Mpro inhibitors through deep reinforcement learning for de novo drug design and computational chemistry approaches” (RSC Medicinal Chemistry, 2024)
# Legend:
# [1] = molecular target: SARS-CoV-2 Main Protease (SARS-CoV-2) (UniProt P0DTD1)
# Procedure: Briefly, compounds were seeded into assay-ready plates (Greiner 384PP, cat# 781280) using an ECHO 650T dispenser and DMSO was back-filled for a uniform concentration in assay plates (DMSO concentration < 1%, final volume = 500 nL.). […] After a quick centrifugation step (1000 rpm, 15 s) the plate is incubated for 15 min at room temperature. […] After centrifugation (1000 rpm, 14 s) the reaction is incubated for 10 min (11-mer) or 5 min (37-mer) at room temperature before quenching with 10 % formic acid. The reactions are analysed with MS using RapidFire (RF) 365 high-throughput sampling robot (Agilent) connected to an iFunnel Agilent 6550 accurate mass quadrupole time-of-flight (Q-TOF) mass spectrometer using electrospray. […] Dose response curves uses an 11-point range of 100--0.0017 µM inhibitor concentrations. RapidFire integrator software (Agilent) was used to extract the charged states from the total ion chromatogram data followed by peak integration. For the 11-mer peptide the m/z (+1) charge states of both the substrate (1191.67 Da) and cleaved N-terminal product TSAVLQ (617.34 Da) were used and the 37-mer peptide the m/z (+2) charge states of the substrate (3960.94 Da) and m/z (+1) of the cleaved C-terminal product [sequence] (1125.57 Da). Percentage conversion (product peak integral / (product peak integral + substrate peak integral))*100) and percentage inhibitions were calculated and normalised against DMSO control with deduction of any background signal in Microsoft Excel. IC50s were calculated using Levenberg–Marquardt algorithm used to fit a restrained Hill equation to the dose-response data with both GraphPad PRISM and CDD.
# [2] = molecular target: SARS-CoV-2 Main Protease (SARS-CoV-2) (UniProt P0DTD1); remark: listed apart in the source
SMILES,relative solubility at 20 uM,relative solubility at 100 uM,inhibition ([1]; 50.0 µM) [%],inhibition ([2]; 20.0 µM) [%],inhibition ([2]; 50.0 µM) [%],inhibition ([1]; 20.0 µM) [%],IC50 [1] [µM],IC50 [2] [µM]
Cc1nnn(C)c1NC(=O)Cc1cccc(Cl)c1,1,1,5.47,-9.24,-12.3,–,–,–
Cc1cccc(NC(=O)Cn2cncc2C)n1,1,1.01,0,-1.3,-3.38,–,–,–
C=CC(=O)N(c1cc(C(C)(C)C)on1)C(C(=O)Nc1c(C)cccc1CC)c1cccnc1 (stereo unspecified),0.99,0.9,–,7.33,21.1,1.49,–,–
O=C(Nc1cccnc1)Nc1ccc(Cl)s1,0.99,0.95,35.7,8.85,23.7,0,–,–
O=C(Cc1c[nH]c2ncccc12)NCc1cc(Cl)ccn1,1,0.98,–,2.58,8.45,0,–,–
COc1ccc(C2CC(c3ccccc3)=NN2C(=O)CCl)cc1OC (stereo unspecified),0.99,0.85,100,100,99.6,–,0.421,–
COc1ccc2[nH]cc(CCNS(C)(=O)=O)c2c1,0.92,0.86,–,-4.19,-4.39,0,–,–
O=C(CCl)N1CCN(C2(c3cccc(Cl)c3)CC2)CC1,1.01,0.99,41.2,55.7,80.8,–,–,52.3
O=C(Nc1cccc(C(=O)N2CCSCC2)c1)C(F)Cl (stereo unspecified),1,1,0,-13.8,-16.9,0,–,–
COc1ccccc1OCCNC(=O)c1cc(=O)[nH]c2ccccc12,0.99,0.96,83.8,83.7,92.7,70.1,3.46,7.23
Cc1ccncc1NC(=O)Cc1ccc2[nH]ccc2c1,1,1,0,2.86,-2.33,–,–,–
COc1ccc2c(c1)CN(C(=O)CCl)C(c1ccccc1)C2 (stereo unspecified),0.98,0.96,100,97.4,97.5,–,1.78,–
C=CC(=O)N(c1ccc(C(C)C)nc1)C(C(=O)Nc1c(C)cccc1CC)c1cccnc1 (stereo unspecified),1,0.95,–,5.61,12.5,0,–,–
COC(=O)C(c1ccccc1Cl)N1CCc2sccc2C1 (stereo unspecified),0.97,0.79,0,-3.49,4.1,–,–,–
Cc1ccc(S(=O)(=O)N2CCN(C(=O)c3cc(=O)[nH]c4ccc(F)cc34)CC2)c(C)c1,0.98,0.84,11.7,6.24,20.6,–,–,–
NS(=O)(=O)c1ccc(N2CCSCC2)cc1,1,1,48.2,–,-25.9,29.1,–,–
Cc1noc(C)c1NC(=O)Cc1cccc(Cl)c1Cl,1,1,0,-2.3,-6.85,–,–,–
Cc1ccncc1NC(=O)CN(C)S(=O)(=O)c1cccc2cccnc12,0.99,1,-0.449,43.4,17.3,0,–,–
Cc1ccccc1NC1CCN(c2ccc(S(N)(=O)=O)cc2)CC1,0.91,0.91,37.6,4.98,7.22,25.2,–,–

SMILES,relative solubility at 20 uM,relative solubility at 100 uM,inhibition ([1]; 50.0 µM) [%],inhibition ([2]; 20.0 µM) [%],inhibition ([2]; 50.0 µM) [%],inhibition ([1]; 20.0 µM) [%],IC50 [1] [µM],IC50 [2] [µM]
O=C(NCc1cccc(C(=O)N2CCOCC2)c1)c1cnc2c(c1)c(=O)[nH]c(=O)n2Cc1ccccc1,0.99,0.9,0,2.69,-3.76,–,–,–
CC(C)N(C)C(=O)C1CCN(C(=O)CCl)CC1,1,1,–,17.3,38.8,-0.0976,–,–
COc1ccccc1OCC(C)NC(=O)c1cc(=O)[nH]c2cc(F)ccc12 (stereo unspecified),1,0.99,22,46.9,78.4,–,–,33
CCn1c(=O)n(CC(=O)NCc2cnccn2)c2ccccc21,1,1,0,1.73,6.74,0,–,–
CO[C@@H](C)C(=O)Nc1cnccc1C (stereo in doubt),1,1.01,6.67,1.23,0.255,–,–,–
C=CC(=O)N(c1ccc(S(F)(F)(F)(F)F)cc1)C(C(=O)Nc1ccc(OC)cc1C)c1cccnc1 (stereo unspecified),0.92,0.75,–,5.52,12.2,0,–,–
O=C(c1cc(=O)[nH]c2ccccc12)N1CCN(c2ccc(F)cc2)CC1,0.99,0.99,52.3,57,78.5,–,52.7,–
CN1CCN(C(=O)Cc2c[nH]c3ncccc23)CC1C(=O)NCCc1c[nH]c2ccc(F)cc12 (stereo unspecified),0.98,0.98,-15,-9.55,-21.5,–,–,–
Cc1cccc(NC(=O)C(C#N)C(=O)C2CCCC2)c1 (stereo unspecified),1,1,0,–,-8.28,0.78,–,–
C=CC(=O)N(c1ccc(C(F)(F)F)cc1)C(C(=O)NCCc1cccc(F)c1)c1cccnc1 (stereo unspecified),0.99,0.94,100,50.7,72.7,–,6.12,–
Cc1ccncc1NC(=O)Cc1cccc(C(N)=O)c1,1.01,1.01,0.535,2.66,-5.83,–,–,–
C=CC(=O)N(c1ccc2c(ccn2C)c1)C(C(=O)NC(C)(C)C)c1cccnc1 (stereo unspecified),1.01,1,–,-17.6,-18,0,–,–
C=CC(=O)N(c1cc(C(C)(C)C)on1)C(C(=O)Nc1cccc(CC)c1)c1cccnc1 (stereo unspecified),0.87,0.76,–,15.6,43.1,6.79,–,–
C=CC(=O)N(c1ccc(C(C)(C)C)cc1)C(C(=O)NCCc1cccc(F)c1)c1cncc(Cl)c1 (stereo unspecified),0.71,0.32,60.6,24.2,57.9,–,2.11,–
CC(NC(=O)c1ccccc1OCC(N)=O)c1cnn(C)c1 (stereo unspecified),1,1,0,-1.52,2.68,0,–,–
CN1CCC(C(=O)NC2CCCCC2NC(=O)C2CCCCC2)CC1 (stereo unspecified),1,1.01,–,-19.4,-19.4,0,–,–
CNC(=O)OC1CCN(S(=O)(=O)c2ccccc2)CC1,1,1,0,–,-16.3,4.89,–,–
O=C(Cc1cccc(Cl)c1)Nc1cnccc1O,1,1,0,0.0135,-2.06,–,–,–
